Laboratory results taken from article PMC5360270 (Journal of medicinal chemistry, 2016).

Assays:
Format in all cases: cell-based
HIV-1DRV^RP20 = experiment: Antiviral p24 assay in MT-4 cells, multi-drug resistant variant HIV-1DRVRP20; details: 50 TCID50 HIV-1DRV^RP20 (multi-drug resistant)
HIV-1C = experiment: Antiviral p24 assay in MT-4 cells, multi-drug resistant variant HIV-1C; details: 50 TCID50 HIV-1C (multi-drug resistant)
HIV-1B = experiment: Antiviral p24 assay in MT-4 cells, multi-drug resistant variant HIV-1B; details: 50 TCID50 HIV-1B (multi-drug resistant)
HIV-1NL4-3 = experiment: Antiviral p24 assay in MT-4 cells, wild-type HIV-1NL4-3; details: 50 TCID50 wild-type HIV-1NL4-3, p24 assay
HIV-1LAI = experiment: Antiviral assay in MT-2 cells exposed to HIV-1LAI, MTT assay; details: Human immunodeficiency virus 1, MT2

SMILES | Mean IC50 ± SD (HIV-1DRV^RP20) | Mean IC50 ± SD (HIV-1C) | Mean IC50 ± SD (HIV-1B) | Mean IC50 ± SD (HIV-1NL4-3) | IC50 (HIV-1LAI) [nM]
COc1ccc(S(=O)(=O)N(CC(C)C)C[C@@H](O)[C@H](CC23CC4CC(CC(C4)C2)C3)NC(=O)O[C@H]2CCOC2)cc1 [15a, (S)-Tetrahydrofuran-3-yl ((2S,3R)-1-((1s,3R)-adamantan-1-yl)-3-hydroxy-4-((N-isobutyl-4-methoxyphenyl)sulfonamido)butan-2-yl)carbamate] | did not exhibit appreciable antiviral activity | did not exhibit appreciable antiviral activity | did not exhibit appreciable antiviral activity | – | –
COc1ccc(S(=O)(=O)N(CC(C)C)C[C@@H](O)[C@H](CC23CC4CC(CC(C4)C2)C3)NC(=O)O[C@H]2CO[C@H]3OCC[C@H]32)cc1 [15d, (3R,3aS,6aR)-Hexahydrofuro[2,3-b]furan-3-yl ((2S,3R)-1-((1s,3R)-adamantan-1-yl)-3-hydroxy-4-((N-isobutyl-4-methoxyphenyl)sulfonamido)butan-2-yl)carbamate] | did not show any appreciable antiviral activity | – | did not show any appreciable antiviral activity | low nanomolar | –
CC(C)CN(C[C@@H](O)[C@H](Cc1ccccc1)NC(=O)O[C@H]1CO[C@H]2OCC[C@H]21)S(=O)(=O)c1ccc(N)cc1 [Darunavir, darunavir] | – | – | – | – | 3
